Calls of active or inactive are those of the source. No cut-off for these calls is given here.
Key:
HL-60 = experiment: Induction of cell differentiation in human HL60 cells assessed as maturing morphological changes at 30 to 1000 nM after 48 hrs by Wright's-Giemsa staining-based forty microscopic view assay; assay type: functional
MCF7 = experiment: Antiproliferative activity against human MCF7 cells assessed as inhibition of proliferation after 72 hrs by MTT assay; assay type: functional, cell-based; conditions: MCF7, 72 h
[1] = molecular target: T1, Vitamin D3 receptor (Bos taurus) (UniProt Q28037); experiment: Displacement of [3H]-1alpha,25-dihydroxyvitamin D3 from bovine thymus VDR measured after overnight incubation relative to 1alpha,25-dihydroxyvitamin D3
T1 sequence (whole entry): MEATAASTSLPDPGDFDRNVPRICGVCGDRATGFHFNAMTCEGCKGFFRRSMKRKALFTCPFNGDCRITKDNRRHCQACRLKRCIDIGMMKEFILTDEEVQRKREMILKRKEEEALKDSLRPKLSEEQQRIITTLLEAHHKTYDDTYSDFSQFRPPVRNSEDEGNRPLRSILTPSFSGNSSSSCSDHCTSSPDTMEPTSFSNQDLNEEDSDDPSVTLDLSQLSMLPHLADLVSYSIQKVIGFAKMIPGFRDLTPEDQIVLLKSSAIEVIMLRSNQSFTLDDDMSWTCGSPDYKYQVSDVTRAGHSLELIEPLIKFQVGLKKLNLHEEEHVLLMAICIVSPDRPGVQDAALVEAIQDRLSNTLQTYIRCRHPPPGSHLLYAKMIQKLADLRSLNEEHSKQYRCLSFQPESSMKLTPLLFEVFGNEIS

Row | IC50 (MCF7) [µM] | Ratio [1] | SMILES | Activity (HL-60)
1 | – | – | C=C1/C(=C\C=C2/CCC[C@]3(C)[C@@H]([C@H](C)CCCC(C)(C)O)CC[C@@H]23)C[C@@H](O)C[C@@H]1O | Active
2 | 7.08 | 0.01 | C=C1/C(=C\C=C2/CCC[C@]3(C)C(c4ccccc4CCCC(C)(C)O)=CC[C@@H]23)C[C@@H](O)C[C@@H]1O | Active
3 | 7.56 | 0.015 | C=C1/C(=C\C=C2/CCC[C@]3(C)C(c4cccc(CCCC(C)(C)O)c4)=CC[C@@H]23)C[C@@H](O)C[C@@H]1O | Active
4 | – | 0.01 | C=C1CC[C@H](O)C/C1=C/C=C1\CCC[C@]2(C)[C@@H]([C@H](C)CCCC(C)(C)O)CC[C@@H]12 | –

Reference: ChEMBL document CHEMBL3352449, “Synthesis and biological evaluation of 1α,25-dihydroxyvitamin D3 analogues with aromatic side chains attached at C-17” (Eur J Med Chem, 2014)
